From article PMC10885103, “Deciphering the Synthetic and Refolding Strategy of a Cysteine-Rich Domain in the Tumor Necrosis Factor Receptor (TNF-R) for Racemic Crystallography Analysis and D-Peptide Ligand Discovery” (ACS Bio & Med Chem Au, 2023)
Where no end group is shown, it is not given here.

How the values were obtained:
[1] = test system: D-TNFR-1 CRD2; experiment: GCI (RAPID, repeated analyte pulses of increasing duration) of TCPB-E isomers on D-TNFR-1 CRD2; format: binding; conditions: fixed concentration of each conformer, D-TNFR-1 CRD2, blank subtracted
Protocol: (§1) Grating-coupled interferometry (GCI) experiments were performed on a Creoptix WAVEsystem using 4PCH-STA WAVE sensor chips (polycarboxylate surface, streptavidin coated) or 4PCH WAVE sensor chips (polycarboxylate surface) as indicated. Chips were first conditioned with borate buffer (0.1 M sodium borate, pH 9, 1 M Sodium chloride).
S4. Identification of active binding peptide conformer
Figure S4.1: Six possible conformers of TCPB, oxidized with either glutathione (TCPB-E-G) or cysteine […]
TCPB solution phase oxidation […]
form. In a 10 mL round bottomed flask, the peptide (50 μM) was dissolved in 5 mL of buffer (0.1 M phosphate, pH 6) containing 0.5 mM of either cystine or glutathione. The reaction mixtures were stirred for six hours at room temperature. Reaction completion was confirmed by LCMS, by taking 10 μL of reaction mixture and diluting with 90 μL of distilled water. The two disulfide bonded products for each cysteine and glutathione mixture were isolated by semi-preparative HPLC.
(§2) (1 picture or pasted object on this page, not shown here)
Figure S4.6: LCMS disulfide bond mapping of isolated TCPB-E peak i, oxidized with glutathione disulfide.
Lyophilized peptide was digested with chymotypsin (0.1 mg/mL) in phosphate buffer ( 0.1 M, pH 6) at room temperature for 12 hours. […]

[2] = test system: D-TNFR-1 CRD2; experiment: GCI single-cycle binding of TCPB-E-C1 and -C4 isomers to D-TNFR-1 CRD2; conditions: single cycle of association and dissociation, 50 μM of each peptide conformer, blank subtracted
Protocol: as §1
Figure S4.10: Grating-coupled interferometry (GCI) analysis of TCPB-E-C1 and -C4 isomers binding to
D-TNFR-1 CRD2. A single cycle of association and dissociation were passed over the sensor surface, with
μM of each peptide conformer. Sensograms shown are blank subtracted (target flow cell - flow cell with 50
TCPB-E-C4. The TCPB-E-C1 conformer was thus identified as the active form of the TCPB peptide.
as §2

[3] = test system: D-TNFR-1 CRD2; experiment: Mirror-image phage display against D-TNFR-1 CRD2; format: binding; conditions: after three rounds of biopanning, D-TNFR-1 CRD2 3 μg on streptavidin/neutravidin beads
Description: The receptor mimic was subjected to mirror-image molecular screening as a means of seeking ligands that inhibit TNF-α binding. […] A D-peptide inhibitor could be potentially tested as a candidate against TNFR-1-related inflammatory diseases localized in the protease-rich gastrointestinal tract.[10b],[20] Consequently, the D-TNFR-1 CRD2 serves as a receptor mimic in mirror-image phage display (MIPD), a molecular screening technique that exploits the concept of reflection symmetry for the discovery of peptide ligands in opposite chirality.[5b] To conduct the experiment, D-TNFR-1 CRD2 was biotinylated at the C-terminus, immobilized onto streptavidin-coated beads, and subjected to phage display. Subsequently, bacteriophage libraries[21] consisted of the sequence format CX9C where X could be any canonical amino acid and terminal cysteine residues used for cyclization were tested. […] This was confirmed by an additional phage display experiment, in which the WLG motif was fixed in the format CX4WLGX2C.
The peptides were linked to the gene-3 coat protein (pIII) via a trialanine (Ala-Ala-Ala) spacer. Gel purified DNA encoding the libraries were ligated into the pCantab 5E phagemid vector, and transformed into chemically competent E. coli TG1. 20-fold excess of helper phage M13KO7 was used during rescue and amplification of the bacteriophages. […]

Sequence: CFHCIWLGDEC (disulfide (positions not given here)) [TCPB, intramolecular disulfide bond between residues 4–11, cysteinylated at position 1]
- sensor response with respect to concentration among TCPB-E isomers [1]: highest sensor response
- sensor response/binding of TCPB-E isomers to D-TNFR-1 CRD2 [2]: highest sensor response

Sequence: CFHCIWLGDEC
- phage display selection outcome, experiment 2 ([3]; CX4WLGX2C library): most abundant peptide sequence

Sequence: CFHCVWLGMEC
- phage display selection outcome, experiment 1 ([3]; CX9C library): enriched
